# Results: patent publication US20150030540A1 (Eli Lilly and Company, priority 2008, published 2015)
# How the values were obtained:
# [1] = system: tau/Ab; assay: selectivity (tau/Ab); assay type: binding
# Text: (§1) Furthermore, the selectivity can be evaluated in brains containing only Aβ plaques/no tau aggregates, Aβ plaques/and tau aggregates, and control brains. Unfortunately, there are no AD brains with only tau and no Aβ present. By testing radiolabeled tracers in these brain sections, one can more quantitative evaluate the relative binding strength (signal strength) and selectivity of various test compounds as they all contain the same radioactive tracer. For examples, if a test tracer binds only to tau, and not amyloid, it should show no signal in the Aβ plaques only brain sections. If a compound binds only to amyloid, it should show uptake in both types of brains. The difficulty of identifying and further quantifying selective compounds lies in the relative abundance of amyloid vs. tau, which is difficult to measure.
# [2] = GM Intensity (comp. with W372); assay type: binding; conditions: compared with W372
# [3] = background in normal brain; assay type: binding
# Text: as §1
# [4] = Brain uptake in rats and mice; assay type: in vivo
# [5] = target: T1, MAO-A (Homo sapiens, UniProt P21397); assay: MAO inhibition, MAO-A; assay type: biochemical
# T1 sequence (P21397 1-527): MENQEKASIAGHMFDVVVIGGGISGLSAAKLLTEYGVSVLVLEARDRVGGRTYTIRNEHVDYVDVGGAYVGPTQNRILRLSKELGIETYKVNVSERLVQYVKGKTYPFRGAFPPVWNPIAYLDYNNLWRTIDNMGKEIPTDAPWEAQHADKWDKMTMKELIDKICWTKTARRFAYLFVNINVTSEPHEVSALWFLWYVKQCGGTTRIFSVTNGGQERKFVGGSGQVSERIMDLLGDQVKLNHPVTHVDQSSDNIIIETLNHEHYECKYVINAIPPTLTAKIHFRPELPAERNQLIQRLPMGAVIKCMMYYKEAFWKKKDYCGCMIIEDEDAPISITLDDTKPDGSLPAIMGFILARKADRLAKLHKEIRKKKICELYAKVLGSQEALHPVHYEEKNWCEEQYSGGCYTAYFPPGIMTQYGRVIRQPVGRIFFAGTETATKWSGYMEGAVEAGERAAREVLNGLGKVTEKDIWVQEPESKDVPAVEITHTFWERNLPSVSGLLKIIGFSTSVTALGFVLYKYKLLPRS
# [6] = target: T2, MAO-B (Homo sapiens, UniProt P27338); assay: MAO inhibition, MAO-B; assay type: biochemical
# T2 sequence (P27338 1-520): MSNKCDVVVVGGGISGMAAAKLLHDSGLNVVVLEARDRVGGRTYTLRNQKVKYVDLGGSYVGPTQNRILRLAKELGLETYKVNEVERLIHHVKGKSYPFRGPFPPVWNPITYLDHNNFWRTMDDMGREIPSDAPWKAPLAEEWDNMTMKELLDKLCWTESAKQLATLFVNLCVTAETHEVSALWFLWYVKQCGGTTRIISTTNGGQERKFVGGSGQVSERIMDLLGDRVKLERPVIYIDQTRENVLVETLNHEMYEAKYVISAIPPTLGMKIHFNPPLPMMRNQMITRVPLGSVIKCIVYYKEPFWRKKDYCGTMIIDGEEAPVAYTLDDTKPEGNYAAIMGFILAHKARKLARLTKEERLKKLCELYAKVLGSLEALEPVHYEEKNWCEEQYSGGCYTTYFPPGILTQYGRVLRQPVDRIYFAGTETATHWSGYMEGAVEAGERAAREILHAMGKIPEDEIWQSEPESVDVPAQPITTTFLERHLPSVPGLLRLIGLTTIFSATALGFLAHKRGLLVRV
# [7] = system: CNS selectivity panel; assay: CNS selectivity panel (hits); assay type: binding
# [8] = target: T3, tau (Homo sapiens, UniProt P10636); assay: KD (tau) binding; conditions: FIG. 2 legend, [18F] tracer; read-out: KD
# T3 construct: Native forms of tau (various isoforms, hyperphosphorylated) and amyloid aggregates are present in brain sections and therefore preferred for compound testing
# T3 sequence (P10636 623-758 limits assumed): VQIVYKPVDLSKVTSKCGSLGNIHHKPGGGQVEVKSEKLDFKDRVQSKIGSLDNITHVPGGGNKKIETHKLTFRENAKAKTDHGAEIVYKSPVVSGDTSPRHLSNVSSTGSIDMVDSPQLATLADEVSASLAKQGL
# Text: (§2) When injected intravenously into mice, the Carbazole based compounds; in particular T807, T805 and T794 have shown excellent brain uptake. These compounds also display high binding affinity to tau fibrils. […] In neuropathological staining, compounds of the present invention stained amyloid plaques and/or tau aggregates.
# as §1
# [9] = system: tau/amyloid; assay: Tx/tau/amyloid correlation; assay type: binding
# [10] = Brain uptake after intravenous injection into mice; assay type: in vivo; conditions: injected intravenously into mice
# Text: as §2
# [11] = system: human hepatocytes; assay: Metabolism in human hepatocytes; assay type: in vitro ADME
# [12] = target: AchE (Homo sapiens, UniProt P22303); assay: AchE activity (IC50); assay type: biochemical
# AchE, sequence (P22303 32-614): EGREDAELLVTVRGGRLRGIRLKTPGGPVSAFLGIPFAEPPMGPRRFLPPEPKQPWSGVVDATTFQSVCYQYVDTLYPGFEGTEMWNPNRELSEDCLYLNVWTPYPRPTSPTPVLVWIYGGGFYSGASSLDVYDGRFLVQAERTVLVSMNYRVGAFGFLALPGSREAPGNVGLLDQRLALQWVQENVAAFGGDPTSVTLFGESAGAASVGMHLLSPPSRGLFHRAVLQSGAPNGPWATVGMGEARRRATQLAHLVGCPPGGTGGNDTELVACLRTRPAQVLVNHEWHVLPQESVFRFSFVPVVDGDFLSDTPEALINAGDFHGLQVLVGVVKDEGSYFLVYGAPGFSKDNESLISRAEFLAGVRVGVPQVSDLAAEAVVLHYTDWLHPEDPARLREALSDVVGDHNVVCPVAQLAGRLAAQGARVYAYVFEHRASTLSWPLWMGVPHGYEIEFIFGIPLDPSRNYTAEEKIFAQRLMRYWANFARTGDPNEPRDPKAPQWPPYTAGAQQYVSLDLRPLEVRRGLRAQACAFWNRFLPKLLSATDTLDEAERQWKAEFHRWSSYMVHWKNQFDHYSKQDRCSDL
# [13] = target: Norepinephrine transp. (Homo sapiens, UniProt P23975); assay: CNS selectivity panel: Norepinephrine transp.; assay type: binding; conditions: 1 uM
# Norepinephrine transp., sequence (P23975 whole entry): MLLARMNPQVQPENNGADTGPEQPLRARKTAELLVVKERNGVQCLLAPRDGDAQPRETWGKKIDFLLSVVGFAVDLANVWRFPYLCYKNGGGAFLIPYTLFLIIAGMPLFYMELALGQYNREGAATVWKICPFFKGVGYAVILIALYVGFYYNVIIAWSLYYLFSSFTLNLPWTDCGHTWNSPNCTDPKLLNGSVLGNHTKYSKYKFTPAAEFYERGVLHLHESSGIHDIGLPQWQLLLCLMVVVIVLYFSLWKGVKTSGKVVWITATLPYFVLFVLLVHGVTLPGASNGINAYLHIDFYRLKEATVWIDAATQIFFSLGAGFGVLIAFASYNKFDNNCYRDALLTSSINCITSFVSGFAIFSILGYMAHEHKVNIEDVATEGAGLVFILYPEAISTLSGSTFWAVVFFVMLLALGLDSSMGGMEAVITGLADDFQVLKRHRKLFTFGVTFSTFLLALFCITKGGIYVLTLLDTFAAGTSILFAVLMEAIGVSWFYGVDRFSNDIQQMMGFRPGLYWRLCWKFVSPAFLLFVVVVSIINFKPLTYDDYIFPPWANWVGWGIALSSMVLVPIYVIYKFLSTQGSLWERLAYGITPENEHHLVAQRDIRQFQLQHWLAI
# [14] = target: Dopamine transp. (Homo sapiens, UniProt Q01959); assay: CNS selectivity panel: Dopamine transp.; assay type: binding; conditions: 1 uM
# Dopamine transp., sequence (Q01959 whole entry): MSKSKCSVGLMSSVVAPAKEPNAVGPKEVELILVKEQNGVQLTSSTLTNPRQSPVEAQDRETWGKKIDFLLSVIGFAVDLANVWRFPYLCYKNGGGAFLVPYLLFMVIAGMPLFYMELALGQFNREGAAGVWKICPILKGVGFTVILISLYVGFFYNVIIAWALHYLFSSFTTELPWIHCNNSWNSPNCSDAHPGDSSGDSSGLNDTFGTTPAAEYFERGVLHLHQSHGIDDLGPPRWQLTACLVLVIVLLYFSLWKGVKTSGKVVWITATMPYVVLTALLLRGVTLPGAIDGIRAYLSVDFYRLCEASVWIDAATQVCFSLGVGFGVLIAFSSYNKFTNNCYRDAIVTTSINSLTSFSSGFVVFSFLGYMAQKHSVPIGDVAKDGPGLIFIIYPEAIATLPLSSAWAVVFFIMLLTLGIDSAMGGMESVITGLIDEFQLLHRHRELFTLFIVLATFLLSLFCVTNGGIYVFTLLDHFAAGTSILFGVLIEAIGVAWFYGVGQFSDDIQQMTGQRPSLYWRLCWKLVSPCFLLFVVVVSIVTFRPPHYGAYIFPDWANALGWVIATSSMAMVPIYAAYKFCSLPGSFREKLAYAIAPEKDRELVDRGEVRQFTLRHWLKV
# [15] = system: Glutamate, NMDA; assay: CNS selectivity panel: Glutamate, NMDA; assay type: binding; conditions: 1 uM
# [16] = system: Monoamine transp.; assay: CNS selectivity panel: Monoamine transp.; assay type: binding; conditions: 1 uM
# [17] = target: T4, Serotonin 5-HT2c (Homo sapiens, UniProt P28335); assay: CNS selectivity panel: Serotonin 5-HT2c; assay type: binding; conditions: 1 uM
# T4 sequence (P28335 33-458): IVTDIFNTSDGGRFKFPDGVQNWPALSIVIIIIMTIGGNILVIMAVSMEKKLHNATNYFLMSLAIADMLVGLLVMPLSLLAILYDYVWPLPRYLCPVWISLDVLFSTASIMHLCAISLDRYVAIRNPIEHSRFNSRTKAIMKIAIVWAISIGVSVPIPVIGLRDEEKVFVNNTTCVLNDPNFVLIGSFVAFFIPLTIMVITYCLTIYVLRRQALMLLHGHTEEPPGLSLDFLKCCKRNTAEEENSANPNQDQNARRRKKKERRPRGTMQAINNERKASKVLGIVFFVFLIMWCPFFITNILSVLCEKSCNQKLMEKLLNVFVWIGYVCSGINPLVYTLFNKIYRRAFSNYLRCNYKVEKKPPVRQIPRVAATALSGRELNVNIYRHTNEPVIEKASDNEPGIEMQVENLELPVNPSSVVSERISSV
SMILES,selectivity (tau/Ab) [1],GM Intensity (comp. with W372) [2],background (normal brain 32566) PSL/mm2 [3],Brain uptake [4],inhibition at 1 µM [5],inhibition at 1 µM [6],CNS selectivity panel (targets named) [7],Kd [8],Tx/tau/amyloid correlation [9],Brain uptake [10],human hepatocytes (metabolic stability) [11],IC50 [12],CNS selectivity panel: Norepinephrine transp. [13],CNS selectivity panel: Dopamine transp. [14],"CNS selectivity panel: Glutamate, NMDA [15]",CNS selectivity panel: Monoamine transp. [16],CNS selectivity panel: Serotonin 5-HT2c [17]
"Cc1cnc2c(c1)[nH]c1cc(OCCF)ccc12 [T703, 7-(2-fluoroethoxy)-3-methyl-5H-pyrido[3,2-b]indole]",16x,6%,15 PSL/mm2,Yes,16%,0%,"NET, σl",–,–,–,–,–,–,–,–,–,–
"FCCCc1ccc2c(c1)[nH]c1ccncc12 [T794, 7-(3-Fluoropropyl)-5H-pyrido[4,3-b]indole]",17x,14%,97 PSL/mm2,"yes (4 rats, 4 mice)",19%,0%,–,0.03 µM,yes,excellent,stable,5 µM,transp.(49%),transp.(34%),(44%) Monoamine,transp. (41%),(33%)
